Source: patent EP4786461A1, “PYRAZOLE CARBOXYLIC ACID DERIVATIVE AND USE THEREOF IN MEDICINE” (Haisco Pharmaceutical Group Co., Ltd., priority 2023, dated 2025)
pEC50: −log10 of the molar value. Structures can show the parent of a compound that is named as a salt. Where two headings read alike, the source gives them in different places.

Experiments:
[1] = biological target: T1, soluble guanylate cyclase (sGC) (Homo sapiens, UniProt Q02108+Q02153); test: In vitro detection experiment for soluble guanylate cyclase (sGC) activity (TR-FRET cGMP); format: biochemical; details: enzymatic agonism and/or activation of sGC; 1.5 nM sGC, 5 µM GTP, 100 µM DETA NONOate
T1 construct: purchased ICE S2304F-H07SH2
T1 sequence (Q02153 1-619): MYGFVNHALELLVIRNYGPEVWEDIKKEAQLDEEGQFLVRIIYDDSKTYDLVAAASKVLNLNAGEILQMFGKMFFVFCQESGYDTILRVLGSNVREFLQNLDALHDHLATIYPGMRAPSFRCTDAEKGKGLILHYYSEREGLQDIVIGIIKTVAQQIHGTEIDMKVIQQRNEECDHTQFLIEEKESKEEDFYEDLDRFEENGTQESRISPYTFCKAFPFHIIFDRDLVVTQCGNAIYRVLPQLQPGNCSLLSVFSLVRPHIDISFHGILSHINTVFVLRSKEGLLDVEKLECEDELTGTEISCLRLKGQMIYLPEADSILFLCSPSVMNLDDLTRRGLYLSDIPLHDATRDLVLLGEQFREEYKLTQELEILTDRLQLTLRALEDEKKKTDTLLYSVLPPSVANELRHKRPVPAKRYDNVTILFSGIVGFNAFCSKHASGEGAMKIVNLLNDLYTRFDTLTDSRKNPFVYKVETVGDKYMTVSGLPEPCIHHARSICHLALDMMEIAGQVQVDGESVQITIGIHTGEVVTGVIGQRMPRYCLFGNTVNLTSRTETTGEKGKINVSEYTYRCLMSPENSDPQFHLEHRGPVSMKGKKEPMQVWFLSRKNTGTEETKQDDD
T1 sequence (Q02108 1-690): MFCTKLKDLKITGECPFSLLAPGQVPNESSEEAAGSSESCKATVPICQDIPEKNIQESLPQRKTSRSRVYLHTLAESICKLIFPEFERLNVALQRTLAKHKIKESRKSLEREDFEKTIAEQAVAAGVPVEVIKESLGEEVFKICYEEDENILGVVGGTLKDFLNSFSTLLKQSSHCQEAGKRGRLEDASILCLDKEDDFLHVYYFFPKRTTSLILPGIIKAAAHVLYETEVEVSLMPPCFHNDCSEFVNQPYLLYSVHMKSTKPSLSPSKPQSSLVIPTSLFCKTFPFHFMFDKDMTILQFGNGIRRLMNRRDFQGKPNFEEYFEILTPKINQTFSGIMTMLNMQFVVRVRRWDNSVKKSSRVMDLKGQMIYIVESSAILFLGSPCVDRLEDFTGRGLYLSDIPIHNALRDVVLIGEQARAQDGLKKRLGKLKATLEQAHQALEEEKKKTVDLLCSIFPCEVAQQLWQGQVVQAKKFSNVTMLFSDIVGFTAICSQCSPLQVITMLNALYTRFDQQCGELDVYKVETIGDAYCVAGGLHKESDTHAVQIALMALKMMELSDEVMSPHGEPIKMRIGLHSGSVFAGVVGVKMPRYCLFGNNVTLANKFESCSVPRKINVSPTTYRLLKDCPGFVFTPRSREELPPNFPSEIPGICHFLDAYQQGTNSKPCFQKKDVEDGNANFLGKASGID
Description: First, 100 nL of the compounds at different concentrations were transferred to a 384-well reaction plate (Greiner, Cat. No. 784075) using Echo 655 (LABCYTE, Cat # 655), with the final DMSO concentration of 1% in the reaction mixture; 2 µL of sGC (ICE, Cat. No. S2304F-H07SH2) was added to the 384-well reaction plate, and the mixture was centrifuged at 1000 rpm for 1 min; and then 1 µL of DETA NONOate was added, and the mixture was incubated at 37°C for 10 min. After the incubation was completed, 2 µL of GTP was added, and the mixture was centrifuged at 1000 rpm for 1 min and reacted at 37°C for 60 min. In the reaction system, the final concentrations of sGC, GTP, and DETA NONOate were 1.5 nM, 5 µM, and 100 µM, respectively. After the reaction was completed, 5 µL of the test mixture (PerkinElmer, Cat. No. 62GM2PEG) was added, and the mixture was incubated at room temperature for 60 min. The TR-FRET signal (Ratio: 665/620 nm) was read using a microplate reader (BMG, Cat. No. PHERAstar FSX). A nonlinear regression curve was fitted using GraphPad Prism software, and EC50 values were calculated. Compound A (Example 1 in WO 2010065275) was used as a positive reference compound. The activation rate was calculated according to Equation 2-1, where Low control represents the TR-FRET signal value of 1 µM compound A, and High control represents the TR-FRET signal value in the DMSO well. Stimulation% = (aveHighcontrol−cpdwell)/(ave High control−ave Low; control)*100% [formula] Table 2-1 Results of enzymatic agonism and/or activation of test compounds on soluble guanylate cyclase (sGC).

[2] = Rat pharmacokinetic assay; format: in vivo, SD rats; details: rats, i.g., 10 mg/kg, plasma
Description: Experimental animals: male SD rats, 180-200 g, purchased from Chengdu Dossy Experimental Animals Co., Ltd.
Experimental design: On the day of the experiment, the SD rats were randomly grouped according to their body weight. The animals were fasted but with water available overnight before the administration, and fed 4 h after the administration.
Blood was taken from the orbits at specified time points, and placed in an EDTAK2 centrifuge tube. The tube was centrifuged at 5000 rpm for 10 min, and the plasma was collected.
Blood sampling time points for the intravenous administration group: 0, 5 min, 15 min, 30 min, 1 h, 2 h, 4 h, 7 h and 24 h; blood sampling time points for the intragastric administration group: 0, 5 min, 15 min, 30 min, 1 h, 2 h, 4 h, 7 h and 24 h. Before analysis and detection, all the samples were stored at -60°C or lower. The samples were analyzed quantitatively by LC-MS/MS. Table 4-1 PK data of test compound (i.e., drug) in rats

[3] = Mouse pharmacokinetic assay; format: in vivo, ICR mice; details: mice, i.g., 10 mg/kg, plasma
Description: Experimental objective: In this experiment, a single dose of test compounds was administered to ICR mice intravenously and intragastrically, the concentrations of the test compounds in the plasma of mice were measured, and the pharmacokinetic characteristics and bioavailability of the test compounds in mice were evaluated.
Experimental animals: male ICR mice, 20-35 g, purchased from Chengdu Dossy Experimental Animals Co., Ltd.
Experimental method: On the day of the experiment, the ICR mice were randomly grouped according to their body weight. The animals were fasted but with water available overnight before the administration, and fed 4 h after the administration.
Sampling: Blood was taken from the orbits at specified time points, and placed in an EDTAK2 centrifuge tube. The tube was centrifuged at 5000 rpm for 10 min, and the plasma was collected.
Time points for plasma collection in G1 group: 0, 5 min, 15 min, 30 min, 1 h, 2 h, 4 h, 7 h, and 24 h.
Time points for plasma collection in G2 group: 0, 5 min, 15 min, 30 min, 1 h, 2 h, 4 h, 7 h, and 24 h.
Before analysis and detection, all the samples were stored at -60°C or lower. The samples were analyzed quantitatively by LC-MS/MS. Table 3-1 PK data of test compound (i.e., drug) in mice

[4] = Stability test in rat liver microsomes; format: in vitro ADME
Description: At 37°C, 1 µM of the test compound was incubated with rat liver microsomes (0.5 mg/mL) supplemented with an NADPH regeneration system for 5, 10, 20, 30 and 60 minutes, and then the LC-MS/MS method was used to detect the concentration of the test compound in the resulting sample. The half-life (T1/2) and intrinsic clearance (CLint(mic)) of the compound in rat liver microsome solution were obtained by calculating the remaining percentage of the compound at the corresponding time points.

[5] = rat liver microsomes 0.5 mg/mL, 1 µM compound, NADPH regeneration system, 37°C
[6] = rat, microsomes, rat liver microsomes 0.5 mg/mL, 1 µM compound, NADPH regeneration system, 37°C
[7] = rat, microsomes, rat liver microsomes 0.5 mg/mL, 1 µM compound, NADPH regeneration system, 37°C, read-out: CLint(mic)
[8] = rat liver microsomes 0.5 mg/mL, 1 µM compound, NADPH regeneration system, 37°C, 1 µM

| Compound | pEC50 [1] | AUC ([2]; rat, po, read-out: AUC) [ng·h/mL] | AUC ([3]; mouse, po, read-out: AUC) [ng·h/mL] | other results |
| --- | --- | --- | --- | --- |
| CC(C)CN1CCN(c2ccc(-c3c(F)cc(Cl)cc3N3CCCC(n4ncc(C(=O)O)c4C(F)F)C3)cc2)CC1 (racemic) [Compound 1] | > 7.70 | – | – | – |
| CC(C)CN1CCN(c2ccc(-c3c(F)cc(Cl)cc3N3CCCC(n4ncc(C(=O)O)c4C(F)F)C3)cc2)CC1 (single isomer, unassigned) [Compound 1-1] | – | – | – | AUC ([2]; rat, in vivo, po, read-out: AUC): > 10000 ng·h/mL; AUC ([3]; mouse, in vivo, po, read-out: AUC): > 10000 ng·h/mL; half-life at 1 µM [4, 5]: 0.727 h; microsomal CLint at 1 µM ([4]; rat, microsomes): 31.8 µL/min/mg |
| CC(C)CN1CCN2c3ccc(-c4ccc(Cl)cc4N4CCC[C@@H](n5ncc(C(=O)O)c5C(F)F)C4)cc3CCC2C1 (single isomer, unassigned) [Compound 8-1] | > 7.70 | > 10000 | – | AUC [3]: > 10000 ng·h/mL; half-life at 1 µM [4, 6]: 2.53 h; microsomal CLint at 1 µM [4, 7]: 9.13 µL/min/mg |
| CC(C)CN1CCN2c3ccc(-c4ccc(Cl)cc4N4CCC[C@H](n5ncc(C(=O)O)c5C(F)F)C4)cc3CCC2C1 (single isomer, unassigned) [Compound 8-2] | > 7.70 | > 10000 | > 10000 | half-life at 1 µM [4, 6]: 1.63 h; microsomal CLint at 1 µM [4, 7]: 14.1 µL/min/mg |
| CC(C)CN1CCN2c3ccc(-c4ccc(Cl)cc4N4CCC[C@@H](n5ncc(C(=O)O)c5C(F)F)C4)cc3CCC2C1 (single isomer, unassigned) [Compound 9-1] | > 7.70 | – | > 10000 | AUC [2]: > 10000 ng·h/mL; CLint(mic) [4, 8]: 11.0 µL/min/mg; T1/2 [4, 8]: 2.1 h |
| CC(C)CN1CCN(c2ccc(-c3ccc(C(F)F)cc3N3CCC[C@@H](n4ncc(C(=O)O)c4C(F)F)C3)cc2)CC1 [Compound 3-1] | > 7.70 | > 10000 | > 10000 | – |
| CC(C)CN1CCN(c2ccc(-c3ccc(C(F)F)cc3N3CCC[C@H](n4ncc(C(=O)O)c4C(F)F)C3)cc2)CC1 [Compound 3-2] | > 7.70 | – | – | – |
| CC(C)CN1CCN2c3cc(F)c(-c4ccc(Cl)cc4N4CCC[C@@H](n5ncc(C(=O)O)c5C(F)F)C4)cc3CC[C@H]2C1 [Compound 5-1] | > 7.70 | > 10000 | > 10000 | half-life at 1 µM [4, 6]: 2.33 h; microsomal CLint at 1 µM [4, 7]: 9.87 µL/min/mg |
| CC(C)CN1CCN2c3cc(F)c(-c4ccc(Cl)cc4N4CCC[C@H](n5ncc(C(=O)O)c5C(F)F)C4)cc3CC[C@H]2C1 [Compound 5-2] | > 7.70 | – | > 10000 | – |
| CC(C)CN1CCN2c3cc(F)c(-c4ccc(Cl)cc4N4CCC[C@@H](n5ncc(C(=O)O)c5C(F)F)C4)cc3CC[C@@H]2C1 [Compound 6-1] | > 7.70 | > 10000 | > 10000 | half-life at 1 µM [4, 6]: 1.87 h; microsomal CLint at 1 µM [4, 7]: 12.4 µL/min/mg |
| CC(C)CN1CCN2c3ccc(-c4ccc(Cl)cc4N4CCCC(n5ncc(C(=O)O)c5C(F)F)C4)cc3CCC2C1 (stereo not shown) [Compound 8] | > 7.70 | – | – | – |
| CC(C)CN1CC2CCC(C1)N2c1ccc(-c2ccc(Cl)cc2N2CCCC(n3ncc(C(=O)O)c3C(F)F)C2)cc1 (stereo not shown) [Compound 10] | > 7.70 | – | – | – |
| CC(C)CN1CCN(c2ccc(-c3ccc(Cl)cc3N3CCC[C@@H](n4ncc(C(=O)O)c4C(F)F)C3)cc2)CC1 [Control compound 1, reference compound] | – | – | – | half-life at 1 µM [4, 5]: 0.183 h; microsomal CLint at 1 µM ([4]; rat liver microsomes 0.5 mg/mL, 1 µM compound, NADPH regeneration system, 37°C, read-out: CLint(mic)): 126 µL/min/mg |
| CC(C)CN1CCN2c3cc(F)c(-c4ccc(Cl)cc4N4CCCC(n5ncc(C(=O)O)c5C(F)F)C4)cc3CC[C@H]2C1 (stereo partly shown) [Trifluoroacetate salt of Compound 5] | > 7.70 | – | – | – |
| CC(C)CN1CC=C(c2ccc(-c3ccc(Cl)cc3N3CCCC(n4ncc(C(=O)O)c4C(F)F)C3)cc2)CC1 (stereo not shown) [Trifluoroacetate salt of Compound 11] | > 7.70 | – | – | – |
| CC(C)CN1CCC(c2ccc(-c3ccc(Cl)cc3N3CCCC(n4ncc(C(=O)O)c4C(F)F)C3)cc2)CC1 (stereo not shown) [Trifluoroacetate salt of Compound 12] | > 7.70 | – | – | – |
